Test results as given in PubChem BioAssay AID248 (DTP/NCI, 2004).
“And” between values parts separate entries of the source, which are not always exact repeats. Equal entries are not always repeated. Toxic doses and inconclusive results are not listed. No stated cut-off is given here; in the data, active means T/C of 150% or more; inactive means T/C below 125%.

System: L1210 leukemia ip in BDF1 mice, survival T/C
Assay: NCI In Vivo Anticancer Drug Screen. Data for tumor model L1210 Leukemia (intraperitoneal) in B6D2F1 (BDF1) mice
Settings: endpoint: mean survival time, higher = longer survival
Summary of the method: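 Value reflects the ratio of survival in compound-treated mice to survival in vehicle-treated controls, with both groups carrying the same transplanted tumor.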

[1] = dose: 100.0 mg/kg/injection, schedule: Q04DX003 (ip), vehicle: saline with Tween-80
[2] = dose: 200.0 mg/kg/injection, schedule: Q04DX003 (ip), vehicle: saline with Tween-80
[3] = dose: 400.0 mg/kg/injection, schedule: Q04DX003 (ip), vehicle: saline with Tween-80
[4] = dose: 50.0 mg/kg/injection, schedule: Q01DX009 (ip), vehicle: saline
[5] = dose: 100.0 mg/kg/injection, schedule: Q04DX003 (ip), vehicle: saline
[6] = dose: 200.0 mg/kg/injection, schedule: Q04DX003 (ip), vehicle: saline
[7] = dose: 100.0 mg/kg/injection, schedule: Q04DX003 (ip), vehicle: Klucel (hydroxypropylcellulose) (HPC)
[8] = dose: 200.0 mg/kg/injection, schedule: Q04DX003 (ip), vehicle: Klucel (hydroxypropylcellulose) (HPC)
[9] = dose: 400.0 mg/kg/injection, schedule: Q04DX003 (ip), vehicle: Klucel (hydroxypropylcellulose) (HPC)
[10] = dose: 100.0 mg/kg/injection, schedule: Q01DX009 (ip), vehicle: saline with Tween-80
[11] = dose: 200.0 mg/kg/injection, schedule: Q01DX009 (ip), vehicle: saline with Tween-80
[12] = dose: 400.0 mg/kg/injection, schedule: Q01DX009 (ip), vehicle: saline with Tween-80
[13] = dose: 25.0 mg/kg/injection, schedule: Q04DX002 (ip), vehicle: Klucel (hydroxypropylcellulose) (HPC)
[14] = dose: 50.0 mg/kg/injection, schedule: Q04DX002 (ip), vehicle: Klucel (hydroxypropylcellulose) (HPC)
[15] = dose: 100.0 mg/kg/injection, schedule: Q04DX002 (ip), vehicle: Klucel (hydroxypropylcellulose) (HPC)
[16] = dose: 100.0 mg/kg/injection, schedule: Q01DX001 (ip), vehicle: saline
[17] = dose: 200.0 mg/kg/injection, schedule: Q01DX001 (ip), vehicle: saline
[18] = dose: 400.0 mg/kg/injection, schedule: Q01DX001 (ip), vehicle: saline

Measured: T/C

CCCCCCCCC1SC1CCCCCCCC(=O)N1CCCN(C(=O)CCCCCCCC2SC2CCCCCCCC)C1 (stereo unspecified)
inactive: [1] 92 % of control | [2] 95 % of control | [3] 97 % of control

CC1NC(=O)OC1(C)C(C)(C)C (stereo unspecified)
inactive: dose: 5.0 mg/kg/injection, schedule: Q04DX003 (ip), vehicle: saline with Tween-80 97 % of control | dose: 10.0 mg/kg/injection, schedule: Q04DX003 (ip), vehicle: saline with Tween-80 100 % of control | dose: 20.0 mg/kg/injection, schedule: Q04DX003 (ip), vehicle: saline with Tween-80 96 % of control

NC(=O)NNC(N)=O
inactive: [4] 91 % of control | dose: 100.0 mg/kg/injection, schedule: Q01DX009 (ip), vehicle: saline 98 % of control | [5] 102 % of control | [6] 101 % of control

COc1cccc(CCNC(=O)CC#N)c1
inactive: [7] 98 % of control | [8] 87 % of control | [9] 91 % of control

O=C1C=CC(=O)C=C1
inactive: dose: 0.5 mg/kg/injection, schedule: Q01DX009 (ip), vehicle: saline 97 % of control | dose: 1.0 mg/kg/injection, schedule: Q01DX009 (ip), vehicle: saline 97 % of control | dose: 2.0 mg/kg/injection, schedule: Q01DX009 (ip), vehicle: saline 94 % of control | dose: 4.0 mg/kg/injection, schedule: Q01DX009 (ip), vehicle: saline 94 % of control

CC(C)=NNC(=O)c1ccc(N)cc1
inactive: [10] 91 % of control | [11] 101 % of control

CCc1occ(C(=O)OC)c1C(=O)OC
inactive: [10] 96 % of control | [1] 95 % of control | [11] 96 % of control | [2] 94 % of control | [12] 100 % of control | [3] 104 % of control

CC(CBr)C(=O)O (stereo unspecified)
inactive: dose: 100.0 mg/kg/injection, schedule: Q04DX002 (ip), vehicle: saline with Tween-80 97 % of control | dose: 200.0 mg/kg/injection, schedule: Q04DX002 (ip), vehicle: saline with Tween-80 97 % of control

O=C(Nc1ccc(C(=O)Nc2ccc(C3=NCCCN3)cc2)cc1)Nc1ccc(C2=NCCCN2)cc1
inactive: dose: 0.94 mg/kg/injection, schedule: Q01DX Z (ip), vehicle: saline 103 % of control | dose: 1.88 mg/kg/injection, schedule: Q01DX Z (ip), vehicle: saline 117 % of control | dose: 18.8 mg/kg/injection, schedule: Q01DX004 (oral), vehicle: saline 94 % of control | dose: 37.5 mg/kg/injection, schedule: Q01DX009 (oral), vehicle: saline 91 % of control | dose: 75.0 mg/kg/injection, schedule: Q01DX009 (oral), vehicle: saline 93 % of control | dose: 150.0 mg/kg/injection, schedule: Q01DX004 (oral), vehicle: saline 93 % of control

C[N+](C)(C)CC(O)COc1ccc(Cl)cc1Cl (stereo unspecified)
inactive: [13] 97 % of control | [14] 101 % of control | [15] 94 % of control and 89 % of control

N/C(=N\[N+](=O)[O-])N(Cc1ccccc1)/N=C/c1ccccc1
inactive: dose: 87.5 mg/kg/injection, schedule: Q04DX003 (ip), vehicle: Klucel (hydroxypropylcellulose) (HPC) 92 % of control | dose: 175.0 mg/kg/injection, schedule: Q04DX003 (ip), vehicle: Klucel (hydroxypropylcellulose) (HPC) 92 % of control | dose: 350.0 mg/kg/injection, schedule: Q04DX003 (ip), vehicle: Klucel (hydroxypropylcellulose) (HPC) 88 % of control

OC(O)(C(F)(F)F)C(F)(F)F
inactive: dose: 12.5 mg/kg/injection, schedule: Q01DX005 (ip), vehicle: saline 108 % of control | dose: 12.5 mg/kg/injection, schedule: Q01DX009 (ip), vehicle: saline 95 % of control | dose: 25.0 mg/kg/injection, schedule: Q01DX005 (ip), vehicle: saline 108 % of control | dose: 25.0 mg/kg/injection, schedule: Q01DX009 (ip), vehicle: saline 104 % of control | dose: 50.0 mg/kg/injection, schedule: Q01DX005 (ip), vehicle: saline 104 % of control | [4] 92 % of control

CC(=O)c1cccc2ccccc12
inactive: [13] 103 % of control | [14] 100 % of control | [15] 103 % of control

CCOC(=O)/C=C(\CC(=O)O)Nc1ccccc1
inactive: [16] 90 % of control | [17] 93 % of control | [18] 95 % of control

CC1(C)N=C(N)N=C(N)N1c1ccc(OCCCCNC(=O)Nc2cccc(S(=O)(=O)F)c2)c(Cl)c1
inactive: dose: 25.0 mg/kg/injection, schedule: Q01DX009 (ip), vehicle: saline with Tween-80 100 % of control | dose: 50.0 mg/kg/injection, schedule: Q01DX009 (ip), vehicle: saline with Tween-80 108 % of control | [10] 116 % of control

Cc1[nH]c(=O)nc2c1CCO2
inactive: [16] 98 % of control | [17] 104 % of control | [18] 101 % of control

OC1CCC2CCC(O)CC2C1 (stereo unspecified)
inactive: [1] 105 % of control | [2] 105 % of control | [3] 92 % of control

CC(=O)Nc1ccc(C=O)cc1[N+](=O)[O-]
inactive: dose: 100.0 mg/kg/injection, schedule: Q01DX009 (ip), vehicle: Klucel (hydroxypropylcellulose) (HPC) 101 % of control | [7] 100 % of control | dose: 200.0 mg/kg/injection, schedule: Q01DX009 (ip), vehicle: Klucel (hydroxypropylcellulose) (HPC) 104 % of control | [8] 100 % of control | dose: 400.0 mg/kg/injection, schedule: Q01DX009 (ip), vehicle: Klucel (hydroxypropylcellulose) (HPC) 94 % of control | [9] 100 % of control

Cn1c[n+](-c2ccccc2)c([S-])n1
inactive: [16] 101 % of control | [17] 101 % of control | [18] 100 % of control

CN1CCCC(OC(=O)N(C)C)C1 (stereo unspecified)
inactive: [5] 98 % of control | [6] 98 % of control | dose: 400.0 mg/kg/injection, schedule: Q04DX003 (ip), vehicle: saline 98 % of control

O=C(c1ccccc1)N1CC2CC3OC3c3cccc1c32 (stereo unspecified)
inactive: [1] 88 % of control | [2] 92 % of control

CC(C)C(NC(=O)CI)C(=O)Nc1ccc(C(=O)O)c(O)c1 (stereo unspecified)
inactive: [7] 108 % of control | [8] 94 % of control

COc1cc(O)c(C(C)=O)c(OC)c1
inactive: [10] 98 % of control | [1] 101 % of control | [11] 96 % of control | [2] 95 % of control | [12] 90 % of control | [3] 93 % of control

Cc1cc(=O)n2c3c(c4c(cc13)c(CBr)cc(=O)n4C)OC2
inactive: dose: 25.0 mg/kg/injection, schedule: Q01DX009 (ip), vehicle: Klucel (hydroxypropylcellulose) (HPC) 86 % of control | dose: 50.0 mg/kg/injection, schedule: Q01DX009 (ip), vehicle: Klucel (hydroxypropylcellulose) (HPC) 102 % of control | dose: 75.0 mg/kg/injection, schedule: Q01DX009 (ip), vehicle: Klucel (hydroxypropylcellulose) (HPC) 94 % of control and 87 % of control | [7] 103 % of control | [8] 93 % of control | [9] 104 % of control

CCCCCCCc1nc(N)nc(N2CCOCC2)n1
inactive: [15] 89 % of control | dose: 200.0 mg/kg/injection, schedule: Q04DX002 (ip), vehicle: Klucel (hydroxypropylcellulose) (HPC) 100 % of control | dose: 400.0 mg/kg/injection, schedule: Q04DX002 (ip), vehicle: Klucel (hydroxypropylcellulose) (HPC) 110 % of control

CC1(C)COC(=S)N1
inactive: dose: 3.13 mg/kg/injection, schedule: Q01DX009 (ip), vehicle: Klucel (hydroxypropylcellulose) (HPC) 100 % of control | dose: 5.0 mg/kg/injection, schedule: Q01DX009 (ip), vehicle: saline 100 % of control | dose: 5.0 mg/kg/injection, schedule: Q04DX003 (ip), vehicle: saline 98 % of control | dose: 6.25 mg/kg/injection, schedule: Q01DX009 (ip), vehicle: Klucel (hydroxypropylcellulose) (HPC) 103 % of control | dose: 10.0 mg/kg/injection, schedule: Q01DX009 (ip), vehicle: Klucel (hydroxypropylcellulose) (HPC) 97 % of control | dose: 10.0 mg/kg/injection, schedule: Q01DX009 (ip), vehicle: saline 100 % of control | dose: 10.0 mg/kg/injection, schedule: Q04DX003 (ip), vehicle: saline 102 % of control | dose: 12.5 mg/kg/injection, schedule: Q01DX009 (ip), vehicle: Klucel (hydroxypropylcellulose) (HPC) 97 % of control and 87 % of control | dose: 20.0 mg/kg/injection, schedule: Q04DX003 (ip), vehicle: Klucel (hydroxypropylcellulose) (HPC) 100 % of control | dose: 20.0 mg/kg/injection, schedule: Q04DX003 (ip), vehicle: saline 101 % of control
